This note sets out measurements from the supplement of paper PMC8967900.

Some test systems named below: MOLT-14; MHH-CALL-3; 697.
Assay in all cases: selective drug sensitivity score (sDSS, relative to normal bone marrow) (sDSS (score)); higher = more potent and effective on the cell line relative to normal bone marrow cells
Conditions in all cases: 72 h
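Further: ALL cell lines in 384-well plates, five doses spanning 10,000-fold, each plate scaled between vehicle and 100 µmol/L benzalkonium chloride controls, sDSS an adapted area-under-curve metric.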

As to `CNC(=O)c1ccc(C)c(-n2c(C)cc(OCc3ccc(F)cc3F)c(Br)c2=O)c1` (top concentration 1000 nM), the “selective drug sensitivity score” value in the experiment on MOLT-14 was 0; with MHH-CALL-3 it was 0; with 697, 2.
With `CONC(=O)c1ccccc1Nc1cc(Nc2cc(C)nn2C(C)C)ncc1Cl` (top concentration 1000 nM), the “selective drug sensitivity score” value in the experiment on MOLT-14, in the experiment with MHH-CALL-3 and with 697 was -0.94 each time.
For `CCOc1ccn(-c2ccc(F)cc2)c(=O)c1C(=O)Nc1ccc(Oc2ccnc(N)c2Cl)c(F)c1` (top concentration 2500 nM), the “selective drug sensitivity score” value with MOLT-14 is 0; in the experiment on MHH-CALL-3, 0; in the experiment with 697 it was 0.4.
With `CC[C@@H]1[C@H](F)C(=O)N[C@@H]1COc1nccc2cc(C(N)=O)c(OC)cc12` (top concentration 10000 nM), the figures for the “selective drug sensitivity score” value in the experiment on MOLT-14, with MHH-CALL-3 and with 697 were 1.38, 1.58 and 1.88, respectively.
Taken in the same sequence, the figures for `C[C@H]1C[C@@H](n2c(Nc3ccc(OC(F)(F)F)cc3)nc3cc(CCC(=O)O)ccc32)CC(C)(C)C1` (top concentration 10000 nM) were 2.96, -0.14 and -0.14.
For the molecule `O=C(NCc1ccncc1)C12CC3CC(C1)CC(c1ccc(Cl)cc1)(C3)C2` (top concentration 50000 nM), the “selective drug sensitivity score” value in the experiment on MOLT-14 is 1.38; in the experiment with MHH-CALL-3 it was 2.78; with 697, 3.78.
For the molecule `O=C(O)c1ccc(CN2CCC(CN[C@@H]3C[C@H]3c3ccccc3)CC2)cc1` (top concentration 100000 nM), the “selective drug sensitivity score” value is -0.62 in the experiment on MOLT-14, -0.62 in the experiment with MHH-CALL-3 and -0.42 in the experiment on 697.
Turning to `COc1cc(N2CCN(C)CC2)ccc1Nc1nccc(-c2cn(C)c3cnccc23)n1` [AZ191] (top concentration 10000 nM), the “selective drug sensitivity score” value with MOLT-14 is -1.32; with MHH-CALL-3, -2.72; in the experiment on 697, 1.08.
Turning to `Cc1cc(Nc2nc(N[C@@H](C)c3ncc(F)cn3)ncc2Cl)[nH]n1` [AZD1480] (top concentration 1000 nM), the results for the “selective drug sensitivity score” value in the experiment with MOLT-14, in the experiment with MHH-CALL-3 and in the experiment on 697 were -4.28, -1.28 and -3.78, respectively.
Taken in the same sequence, the figures for `COc1cc(CCc2cc(NC(=O)c3ccc(N4CC(C)NC(C)C4)cc3)n[nH]2)cc(OC)c1` (stereo not drawn) [AZD4547] (top concentration 1000 nM) were -0.14, -0.14 and -0.04.
Take `CN(C)C(=O)c1ccc(S(=O)(=O)c2ccc(NC(=O)[C@@](C)(O)C(F)(F)F)c(Cl)c2)cc1` [AZD7545] (top concentration 10000 nM): the “selective drug sensitivity score” value with MOLT-14 is 1; in the experiment on MHH-CALL-3 it was 0.1; in the experiment with 697, 4.3.
On the same counts, the results for `COc1cc(C)c(/C=C/C(C)=C/C=C/C(C)=C/C(=O)O)c(C)c1C` [Acitretin] (top concentration 10000 nM) are -1.4, -0.2 and 0.6.
Consider `CCC1(c2ccc(N)cc2)CCC(=O)NC1=O` (stereo not drawn) [Aminoglutethimide] (top concentration 10000 nM), for which the “selective drug sensitivity score” value in the experiment on MOLT-14, with MHH-CALL-3 and in the experiment on 697 was 0 throughout.
On to `CNC(=O)c1ccc(N2C(=S)N(c3cnc(C#N)c(C(F)(F)F)c3)C(=O)C23CCC3)cc1F` [Apalutamide] (top concentration 10000 nM), for which the “selective drug sensitivity score” value in the experiment on MOLT-14, with MHH-CALL-3 and in the experiment with 697 was 0 throughout.
In the case of `N#CC1(c2ccc(NC(=O)c3cccnc3NCc3ccncc3)cc2)CCCC1` [Apatinib] (top concentration 10000 nM), the “selective drug sensitivity score” value with MOLT-14, with MHH-CALL-3 and with 697 was 0 in each case.
As to `Cc1nc2cccc(N)c2c(=O)n1C1CCC(=O)NC1=O` (stereo not drawn) [Avadomide (CC122)] (top concentration 10000 nM), the “selective drug sensitivity score” value turned out to be 0 in the experiment on MOLT-14, 0 with MHH-CALL-3 and 2.7 in the experiment on 697.
As for `Nc1nc(Nc2ccc3c(c2)CC[C@@H](N2CCCC2)CC3)nn1-c1cc2c(nn1)-c1ccccc1CCC2` [BGB324] (top concentration 10000 nM), the “selective drug sensitivity score” value in the experiment on MOLT-14 was 1.62; in the experiment on MHH-CALL-3, -0.98; with 697 it was 3.52.
On the same counts, the results for `CC1(C)C(C(=O)Nc2ccc(S(=O)(=O)c3ccc(NC(=O)C4C(C)(C)C4(C)C)cc3)cc2)C1(C)C` [BRD7116] (top concentration 10000 nM) are 2.16, -0.24 and 0.56.
Turning to `CCS(=O)(=O)N1CC(CC#N)(n2cc(-c3ncnc4[nH]ccc34)cn2)C1` [Baricitinib] (top concentration 2500 nM), the “selective drug sensitivity score” value in the experiment with MOLT-14, in the experiment on MHH-CALL-3 and in the experiment with 697 was -1.94 in each case.
As to `CC(O)(CS(=O)(=O)c1ccc(F)cc1)C(=O)Nc1ccc(C#N)c(C(F)(F)F)c1` (stereo not drawn) [Bicalutamide] (top concentration 10000 nM), the “selective drug sensitivity score” value in the experiment on MOLT-14 is 2.52; in the experiment on MHH-CALL-3, -1.68; in the experiment with 697, -0.68.
Consider `COc1cc(Nc2c(C#N)cnc3cc(OCCCN4CCN(C)CC4)c(OC)cc23)c(Cl)cc1Cl` [Bosutinib] (top concentration 10000 nM), for which the results for the “selective drug sensitivity score” value with MOLT-14, in the experiment on MHH-CALL-3 and in the experiment on 697 were 1.86, 8.06 and 5.86, respectively.
Consider `Cc1cc2c(F)c(Oc3ncnn4cc(OC[C@@H](C)O)c(C)c34)ccc2[nH]1` [Brivanib] (top concentration 1000 nM), for which the “selective drug sensitivity score” value in the experiment with MOLT-14 is 0.26; in the experiment with MHH-CALL-3, -0.04; in the experiment on 697, 0.66.
Consider `Cc1ccc(-c2cc(C(F)(F)F)nn2-c2ccc(S(N)(=O)=O)cc2)cc1` [Celecoxib] (top concentration 10000 nM), for which the results for the “selective drug sensitivity score” value in the experiment on MOLT-14, with MHH-CALL-3 and in the experiment on 697 were -0.06, 5.24 and -0.06, respectively.
With `N.N.[Cl][Pt][Cl]` [Cisplatin] (top concentration 100000 nM), the entries for the “selective drug sensitivity score” value in the experiment on MOLT-14, in the experiment on MHH-CALL-3 and in the experiment on 697 were 18.6, 4.04 and 19.7, respectively.
On to `Cc1c2oc3c(C)ccc(C(=O)N[C@@H]4C(=O)N[C@H](C(C)C)C(=O)N5CCC[C@H]5C(=O)N(C)CC(=O)N(C)[C@@H](C(C)C)C(=O)O[C@@H]4C)c3nc-2c(C(=O)N[C@@H]2C(=O)N[C@H](C(C)C)C(=O)N3CCC[C@H]3C(=O)N(C)CC(=O)N(C)[C@@H](C(C)C)C(=O)O[C@@H]2C)c(N)c1=O` [Dactinomycin] (top concentration 1000 nM), for which the “selective drug sensitivity score” value stood at 16.9 in the experiment with MOLT-14, 15.7 in the experiment on MHH-CALL-3 and 19.2 with 697.
On to `O=C(O)CCCCC(CCSCc1ccccc1)SCc1ccccc1` (stereo not drawn) [Devimistat (CPI-613)] (top concentration 10000 nM), for which the “selective drug sensitivity score” value came to 0 with MOLT-14, 1 in the experiment with MHH-CALL-3 and 0 with 697.
`CC(=O)O[C@@]12CO[C@@H]1C[C@H](O)[C@@]1(C)C(=O)[C@H](O)C3=C(C)[C@@H](OC(=O)[C@H](O)[C@@H](NC(=O)OC(C)(C)C)c4ccccc4)C[C@@](O)([C@@H](OC(=O)c4ccccc4)[C@H]21)C3(C)C` [Docetaxel] (top concentration 1000 nM): the “selective drug sensitivity score” value was 19.5 in the experiment with MOLT-14, 7.3 in the experiment on MHH-CALL-3 and 23.4 with 697.
Turning to `Cc1ccc(-n2nc(C(C)(C)C)cc2NC(=O)Nc2ccc(OCCN3CCOCC3)c3ccccc23)cc1` [Doramapimod] (top concentration 10000 nM), the results for the “selective drug sensitivity score” value in the experiment with MOLT-14, with MHH-CALL-3 and in the experiment on 697 were -0.24, -0.24 and 4.96, respectively.
`Cc1ccc(NS(=O)(=O)c2cccc(C#N)c2)c2[nH]cc(C#N)c12` [E7820] (top concentration 50000 nM): the “selective drug sensitivity score” value worked out at 21.3 with MOLT-14, 7.82 in the experiment with MHH-CALL-3 and 21.7 with 697.
In the case of `C[C@@H]1CN(C(=O)c2ccc(NC(=O)c3cc(O[C@H](C)c4c(Cl)ccc(F)c4Cl)c(N)nn3)cc2)C[C@H](C)N1` [Ensartinib] (top concentration 1000 nM), the “selective drug sensitivity score” value is -1.74 with MOLT-14, -2.84 in the experiment with MHH-CALL-3 and 0.26 with 697.
As to `c1cn2cc(-c3ccc4cn[nH]c4c3)nc(Nc3ccc(N4CCOCC4)cc3)c2n1` [Entospletinib] (top concentration 5000 nM), the figures for the “selective drug sensitivity score” value with MOLT-14, in the experiment with MHH-CALL-3 and in the experiment on 697 were -0.64, -0.64 and 3.16, respectively.
Turning to `COc1cc([C@@H]2c3cc4c(cc3[C@@H](O[C@@H]3O[C@@H]5CO[C@@H](C)O[C@H]5[C@H](O)[C@H]3O)[C@H]3COC(=O)[C@H]23)OCO4)cc(OC)c1O` [Etoposide] (top concentration 10000 nM), the “selective drug sensitivity score” value in the experiment on MOLT-14 is 21.5; in the experiment on MHH-CALL-3, 19.7; with 697, 20.6.
Taken in the same sequence, the figures for `CCCCCCCCc1ccc(CCC(N)(CO)CO)cc1` [Fingolimod] (top concentration 10000 nM) were 2.08, -3.42 and -0.22.
With `O=C(NOCCO)c1ccc2cncn2c1Nc1ccc(I)cc1F` [GDC-0623] (top concentration 2500 nM), the “selective drug sensitivity score” value with MOLT-14 is -1.6; with MHH-CALL-3, 1.7; in the experiment with 697, -2.5.
On the same counts, the results for `C[C@H]1CN(C2COC2)CCN1c1ccc(Nc2cc(-c3ccnc(N4CCn5c(cc6c5CC(C)(C)C6)C4=O)c3CO)cn(C)c2=O)nc1` [GDC-0853] (top concentration 1000 nM) are 0, 0 and 0.
For `CCNc1nc(Nc2cc(F)c(C(=O)N3CCOCC3)cc2OC)ncc1C(F)(F)F` [GNE-7915] (top concentration 1000 nM), the “selective drug sensitivity score” value with MOLT-14, with MHH-CALL-3 and in the experiment with 697 was -0.06 in each case.
